{
  "source": "ChEMBL document CHEMBL1201862",
  "about": "“PubChem BioAssay data set” (2004)",
  "test_in_all_cases": "NCI anticancer screen, dose series, 48 h",
  "key": {"HCT-116": {"system": "HCT-116"}, "MDA-N": {"system": "MDA-N"}, "NCI/ADR-RES": {"system": "NCI/ADR-RES"}, "OVCAR-4": {"system": "OVCAR-4"}, "K562": {"system": "K562"}, "UO-31": {"system": "UO-31"}, "UACC-257": {"system": "UACC-257"}, "HOP-62": {"system": "HOP-62"}, "HCT-15": {"system": "HCT-15"}, "Hs-578T": {"system": "Hs-578T"}, "SK-OV-3": {"system": "SK-OV-3"}, "A549": {"system": "A549"}, "NCI-H226": {"system": "NCI-H226"}, "T47D": {"system": "T47D"}, "CCRF-CEM": {"system": "CCRF-CEM"}, "M19-MEL": {"system": "M19-MEL"}, "SNB-75": {"system": "SNB-75"}, "HL-60": {"system": "HL-60"}, "OVCAR-8": {"system": "OVCAR-8"}, "MOLT-4": {"system": "MOLT-4"}},
  "note": "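Where inhibition never reached the appropriate level, the endpoint shown equals the highest concentration tested. Otherwise, values were interpolated linearly from a five-concentration, 48-hour dose response in 96-well plates. GI50: concentration for 50% inhibition of growth.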 Activity calls are given as the source filed them. Cut-off read from the data, not from the text of the source: active = GI50 up to about 1.1 µM and inactive = higher.",
  "data": [
    {"smiles": "C/C(=N\\N=C(/[SeH])N1CC2CCC(CC2)C1)c1ccccn1", "values": [
      {"measurement": "GI50", "setting": "HCT-116", "result": "< 0.01 µM (active)"},
      {"measurement": "GI50", "setting": "MDA-N", "result": "0.226 µM (active)"},
      {"measurement": "GI50", "setting": "NCI/ADR-RES", "result": "< 0.01 µM (active)"},
      {"measurement": "GI50", "setting": "OVCAR-4", "result": "0.03 µM (active)"},
      {"measurement": "GI50", "setting": "K562", "result": "< 0.01 µM (active)"},
      {"measurement": "GI50", "setting": "UO-31", "result": "0.217 µM (active)"},
      {"measurement": "GI50", "setting": "UACC-257", "result": "0.0112 µM (active)"},
      {"measurement": "GI50", "setting": "HOP-62", "result": "0.341 µM (active)"},
      {"measurement": "GI50", "setting": "HCT-15", "result": 0.0147, "unit": "µM"},
      {"measurement": "GI50", "setting": "Hs-578T", "result": "0.198 µM (active)"},
      {"measurement": "GI50", "setting": "SK-OV-3", "result": "0.356 µM (active)"},
      {"measurement": "GI50", "setting": "A549", "result": "0.0614 µM (active)"},
      {"measurement": "GI50", "setting": "NCI-H226", "result": "0.43 µM (active)"},
      {"measurement": "GI50", "setting": "T47D", "result": "0.0556 µM (active)"},
      {"measurement": "GI50", "setting": "CCRF-CEM", "result": "0.0111 µM (active)"},
      {"measurement": "GI50", "setting": "M19-MEL", "result": "0.0449 µM (active)"},
      {"measurement": "GI50", "setting": "SNB-75", "result": "0.0871 µM (active)"},
      {"measurement": "GI50", "setting": "HL-60", "result": "0.0166 µM (active)"},
      {"measurement": "GI50", "setting": "OVCAR-8", "result": "0.0137 µM (active)"},
      {"measurement": "GI50", "setting": "MOLT-4", "result": "0.014 µM (active)"}
    ]}
  ]
}
